According to PubChem BioAssay AID248 (DTP/NCI, 2004):
“And” between values parts separate entries of the source, which are not always exact repeats. Equal entries are not always repeated. Inconclusive results and toxic doses are left out. Cut-off read from the data, not from the text of the source: active = T/C of 150% or more; inactive = T/C below 125%.

Test system: L1210 leukemia ip in BDF1 mice, survival T/C
Assay: NCI In Vivo Anticancer Drug Screen. Data for tumor model L1210 Leukemia (intraperitoneal) in B6D2F1 (BDF1) mice
Conditions: endpoint: mean survival time, higher = longer survival
Procedure, shortened: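 In this screen, tumor-bearing mice given compound are compared to those given vehicle, and their survival values are reported as a treated-to-control quotient.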

[1] = dose: 50.0 mg/kg/injection, schedule: Q01DX001 (ip), vehicle: saline
[2] = dose: 100.0 mg/kg/injection, schedule: Q01DX001 (ip), vehicle: saline
[3] = dose: 200.0 mg/kg/injection, schedule: Q01DX001 (ip), vehicle: saline
[4] = dose: 400.0 mg/kg/injection, schedule: Q01DX001 (ip), vehicle: saline
[5] = dose: 100.0 mg/kg/injection, schedule: Q01DX009 (ip), vehicle: Klucel (hydroxypropylcellulose) (HPC)
[6] = dose: 200.0 mg/kg/injection, schedule: Q01DX009 (ip), vehicle: Klucel (hydroxypropylcellulose) (HPC)
[7] = dose: 400.0 mg/kg/injection, schedule: Q01DX009 (ip), vehicle: Klucel (hydroxypropylcellulose) (HPC)
[8] = dose: 100.0 mg/kg/injection, schedule: Q01DX001 (ip), vehicle: Klucel (hydroxypropylcellulose) (HPC)
[9] = dose: 200.0 mg/kg/injection, schedule: Q01DX001 (ip), vehicle: Klucel (hydroxypropylcellulose) (HPC)
[10] = dose: 100.0 mg/kg/injection, schedule: Q04DX003 (ip), vehicle: saline
[11] = dose: 200.0 mg/kg/injection, schedule: Q04DX003 (ip), vehicle: saline
[12] = dose: 400.0 mg/kg/injection, schedule: Q04DX003 (ip), vehicle: saline
[13] = dose: 100.0 mg/kg/injection, schedule: Q01DX009 (ip), vehicle: saline with Tween-80
[14] = dose: 100.0 mg/kg/injection, schedule: Q04DX003 (ip), vehicle: saline with Tween-80
[15] = dose: 200.0 mg/kg/injection, schedule: Q01DX009 (ip), vehicle: saline with Tween-80
[16] = dose: 200.0 mg/kg/injection, schedule: Q04DX003 (ip), vehicle: saline with Tween-80
[17] = dose: 400.0 mg/kg/injection, schedule: Q01DX009 (ip), vehicle: saline with Tween-80
[18] = dose: 400.0 mg/kg/injection, schedule: Q04DX003 (ip), vehicle: saline with Tween-80
[19] = dose: 100.0 mg/kg/injection, schedule: Q04DX002 (ip), vehicle: Klucel (hydroxypropylcellulose) (HPC)
[20] = dose: 200.0 mg/kg/injection, schedule: Q04DX002 (ip), vehicle: Klucel (hydroxypropylcellulose) (HPC)
[21] = dose: 400.0 mg/kg/injection, schedule: Q04DX002 (ip), vehicle: Klucel (hydroxypropylcellulose) (HPC)
[22] = dose: 25.0 mg/kg/injection, schedule: Q01DX009 (ip), vehicle: saline with Tween-80

Measured: T/C

O=C(CCCC(=O)N/N=C/c1ccc2ccccc2n1)N/N=C\c1ccc2ccccc2n1
inactive: dose: 50.0 mg/kg/injection, schedule: Q01DX001 (ip), vehicle: other 95 % of control | dose: 100.0 mg/kg/injection, schedule: Q01DX001 (ip), vehicle: other 88 % of control | dose: 400.0 mg/kg/injection, schedule: Q01DX001 (ip), vehicle: other 95 % of control

CCOC(=O)NP(=O)(NC(=O)OCC)NC(=O)OCC
inactive: [1] 106 % of control | [2] 104 % of control | [3] 93 % of control | [4] 106 % of control

CN1CC(=O)n2c(cc3ccccc32)C1=O
inactive: dose: 100.0 mg/kg/injection, schedule: Q04DX002 (ip), vehicle: saline 110 % of control | dose: 400.0 mg/kg/injection, schedule: Q04DX002 (ip), vehicle: saline 105 % of control

Cc1cccc(C)c1OC(=O)NCCCCCCNC(=O)Oc1c(C)cccc1C
inactive: [5] 102 % of control | [6] 92 % of control | [7] 92 % of control

COc1ccccc1-n1c(O)c(N=Nc2ccc(Br)cc2)c(=O)n(-c2ccc(Br)cc2)c1=S
inactive: dose: 50.0 mg/kg/injection, schedule: Q01DX001 (ip), vehicle: Klucel (hydroxypropylcellulose) (HPC) 93 % of control | [8] 109 % of control | [9] 102 % of control

O=C1c2cc([N+](=O)[O-])ccc2-c2c(F)cc(F)cc21
inactive: [10] 104 % of control | [11] 89 % of control | [12] 91 % of control

CCC(C(=O)OC)C1CCCCC1 (stereo not drawn)
inactive: [13] 100 % of control | [14] 103 % of control | [15] 87 % of control | [16] 95 % of control | [17] 92 % of control | [18] 95 % of control

CC(O)CCc1ccccc1 (stereo not drawn)
inactive: [13] 100 % of control | [15] 89 % of control | [17] 88 % of control

COc1ccc(-c2cnc(=S)[nH]c2N)cc1
inactive: [8] 116 % of control | [9] 121 % of control | dose: 400.0 mg/kg/injection, schedule: Q01DX001 (ip), vehicle: Klucel (hydroxypropylcellulose) (HPC) 119 % of control

C[CH2][Sb]([Cl])([CH2]C)([CH2]C)[O][Sb]([Cl])([CH2]C)([CH2]C)[CH2]C
inactive: dose: 10.0 mg/kg/injection, schedule: Q01DX001 (ip), vehicle: saline 109 % of control | dose: 20.0 mg/kg/injection, schedule: Q01DX001 (ip), vehicle: saline 114 % of control | dose: 40.0 mg/kg/injection, schedule: Q01DX001 (ip), vehicle: saline 123 % of control

CC1=NC(C#N)=C(C#N)N=C(c2ccccc2)C1
inactive: dose: 100.0 mg/kg/injection, schedule: Q01DX009 (ip), vehicle: gum acacia 99 % of control | dose: 200.0 mg/kg/injection, schedule: Q01DX009 (ip), vehicle: gum acacia 91 % of control

COC(=O)c1ccccc1NC(=S)NC(=O)/C=C/c1ccccc1
inactive: [5] 94 % of control | dose: 100.0 mg/kg/injection, schedule: Q04DX003 (ip), vehicle: Klucel (hydroxypropylcellulose) (HPC) 97 % of control | [6] 103 % of control | dose: 200.0 mg/kg/injection, schedule: Q04DX003 (ip), vehicle: Klucel (hydroxypropylcellulose) (HPC) 95 % of control | [7] 106 % of control | dose: 400.0 mg/kg/injection, schedule: Q04DX003 (ip), vehicle: Klucel (hydroxypropylcellulose) (HPC) 91 % of control

Cc1cc2nncn2c2ccccc12
inactive: [1] 103 % of control | [2] 101 % of control | [3] 101 % of control

CC(=O)c1cccc(NC(=O)Oc2ccc(Cl)cc2Cl)c1
inactive: [5] 101 % of control | [6] 110 % of control

CCN1c2c(nc(N)[nH]c2=O)NCC1CNc1ccc(C(=O)NC(CCC(=O)O)C(=O)O)cc1 (stereo not drawn)
inactive: dose: 100.0 mg/kg/injection, schedule: Q01DX009 (ip), vehicle: saline 103 % of control | [10] 108 % of control | dose: 200.0 mg/kg/injection, schedule: Q01DX009 (ip), vehicle: saline 115 % of control | [11] 104 % of control | dose: 400.0 mg/kg/injection, schedule: Q01DX009 (ip), vehicle: saline 94 % of control | [12] 103 % of control

CC/C(=C(\c1ccccc1)c1ccc(OCCN(C)C)cc1)c1ccccc1
inactive: [19] 95 % of control | [20] 92 % of control | [21] 100 % of control

CCOC(=O)CCc1ccc(N=NN(C)C)cc1
inactive: dose: 125.0 mg/kg/injection, schedule: Q01DX009 (ip), vehicle: saline 115 % of control

CC(=N)c1ccc(C)cc1
inactive: dose: 6.25 mg/kg/injection, schedule: Q01DX009 (ip), vehicle: saline with Tween-80 94 % of control | dose: 12.5 mg/kg/injection, schedule: Q01DX009 (ip), vehicle: saline with Tween-80 96 % of control | [22] 102 % of control

Cc1cccc(SC(=O)Nc2ccc([N+](=O)[O-])cc2Cl)c1
inactive: [19] 100 % of control | [20] 116 % of control | [21] 92 % of control

Nc1nc(CCc2ccc(NC(=O)CBr)cc2)c(CCCCc2ccccc2)c(=O)[nH]1
inactive: [1] 104 % of control | [2] 102 % of control | [3] 96 % of control | [4] 110 % of control

CCCCOCCOc1ccc(C(=O)OC)cc1
inactive: dose: 100.0 mg/kg/injection, schedule: Q04DX003 (ip), vehicle: saline sonified 101 % of control | dose: 200.0 mg/kg/injection, schedule: Q04DX003 (ip), vehicle: saline sonified 111 % of control | dose: 400.0 mg/kg/injection, schedule: Q04DX003 (ip), vehicle: saline sonified 101 % of control

Cc1ccc(S(=O)(=O)OC2COC3C(OS(=O)(=O)c4ccc(C)cc4)COC23)cc1 (stereo not drawn)
inactive: [2] 93 % of control | dose: 100.0 mg/kg/injection, schedule: Q04DX003 (ip), vehicle: DMSO 103 % of control | [3] 96 % of control | dose: 200.0 mg/kg/injection, schedule: Q04DX003 (ip), vehicle: DMSO 97 % of control | [4] 93 % of control | dose: 400.0 mg/kg/injection, schedule: Q04DX003 (ip), vehicle: DMSO 111 % of control

C=CC[Se]c1nc(N)nc2c1ncn2C1OC(CO)C(O)C1O (stereo not drawn)
inactive: dose: 12.5 mg/kg/injection, schedule: Q01DX005 (ip), vehicle: saline 104 % of control | dose: 25.0 mg/kg/injection, schedule: Q01DX005 (ip), vehicle: saline 100 % of control

Cc1ccc(NC(=O)Oc2ccc(Br)cc2Br)c(Cl)c1
inactive: [22] 104 % of control and 106 % of control | dose: 50.0 mg/kg/injection, schedule: Q01DX009 (ip), vehicle: saline with Tween-80 101 % of control and 105 % of control | dose: 100.0 mg/kg/injection, schedule: Q04DX002 (ip), vehicle: saline with Tween-80 101 % of control and 107 % of control | [14] 103 % of control | dose: 200.0 mg/kg/injection, schedule: Q04DX002 (ip), vehicle: saline with Tween-80 97 % of control and 101 % of control | [16] 113 % of control | dose: 400.0 mg/kg/injection, schedule: Q04DX002 (ip), vehicle: saline with Tween-80 103 % of control and 111 % of control | [18] 103 % of control

CC(=O)CC1(O)C(=O)Nc2ccccc21 (stereo not drawn)
inactive: [5] 101 % of control | [6] 95 % of control | [7] 98 % of control

CCOC(=O)C1CSC(C)(C(=O)OCC)N1 (stereo not drawn)
inactive: dose: 100.0 mg/kg/injection, schedule: Q01DX001 (ip), vehicle: carboxymethylcellulose (CMC) 100 % of control | dose: 200.0 mg/kg/injection, schedule: Q01DX001 (ip), vehicle: carboxymethylcellulose (CMC) 96 % of control | dose: 400.0 mg/kg/injection, schedule: Q01DX001 (ip), vehicle: carboxymethylcellulose (CMC) 105 % of control

CN=[N+]([O-])c1ccccc1
inactive: [2] 100 % of control | [3] 100 % of control | [4] 97 % of control

ClC(C[n+]1ccccc1)c1ccccc1 (stereo not drawn)
inactive: [2] 100 % of control

CS(=O)(=O)OC1CCC(OS(C)(=O)=O)CC1 (stereo not drawn)
inactive: dose: 100.0 mg/kg/injection, schedule: Q01DX001 (ip), vehicle: saline with Tween-80 103 % of control | dose: 200.0 mg/kg/injection, schedule: Q01DX001 (ip), vehicle: saline with Tween-80 100 % of control | dose: 400.0 mg/kg/injection, schedule: Q01DX001 (ip), vehicle: saline with Tween-80 100 % of control
